Patent US5770178A, “Metal chelate forming peptides and use thereof” (Nihon Medi-Physics Co., Ltd., priority 1994, dated 1998)
Where no end group is shown, it is not given here.

What was measured:
[1] = tested on: Tumor cells HEp2 (Human Epidermoid Carcinoma); assay: Imaging of tumor in model mouse, tumor/muscle radioactivity ratio; format: in vivo, BALB/C nude mouse; details: i.v.
Protocol: Tumor cells HEp2 (5×10^6 cells, Human Epidermoid Carcinoma; ATCC No. CCL 23) were suspended in 1.0 ml of medium (Minimum essential medium (Eagle's) with Earle's BSS, 90% fetal bovine serum, 10%), and 100 μl of the suspension was subcutaneously injected to BALB/C nude mouse (6 weeks age) at the body side. […] Five and 20 minutes after the injection, the animal was imaged with a gamma camera.
Immediately after the imaging, the animal was sacrificed and examined for the distribution of the radioactivity in each organ using NaI single channel analyzer to determine a ratio of the radioactivity in tumor site to the radioactivity in muscle site (T/B ratio).

[2] = tested on: inflammation site (Staphylococcus aureus); details: S. aureus inflammation rat, i.v.
Protocol: Staphylococcus aureus 10^8 cells were suspended in 1 ml of physiological saline, and 100 μl of the suspension was intramuscularly administered to SD rats weighing about 220 g at the right calf. […] Thirty and 120 minutes after the peptide was injected, the animal was imaged with a gamma camera. Regions of interest were selected from the obtained image to determine a ratio T/B of the radioactivity in inflammation site (T) to the radioactivity in normal site (B).

Row | Substance | Imaging of tumor site (gamma camera) ([1]; 20 minutes after injection) | ratio of the radioactivity in tumor site to the radioactivity in muscle site (T/B ratio) ([1]; twenty minutes after injection, n=3) | Imaging of inflammation site (gamma camera) ([2]; 30 and 120 minutes after injection) | ratio T/B of the radioactivity in inflammation site (T) to the radioactivity in normal site (B) ([2]; regions of interest of image, n=6)
1 | Tc-99m-KYCAREPPTRTNAYWGQG (also: Tc-99m label) | clearly imaged | 4.50±0.71 |  | 
2 | Tc-99m-KYCGGKTKPREQQYNSTYRVV-NH2 |  |  | clearly imaged | 3.26±0.18
